{"source": "paper PMC5601486", "about": "“Identification of 4-phenylquinolin-2(1H)-one as a specific allosteric inhibitor of Akt” (Scientific Reports, 2017)", "key": {"[1]": {"test_system": "ERK8", "experiment": "KINOMEscan", "details": "50000 nM", "quoted_text": "KINOMEscan™ selectivity screen\n(§4) The assay was perfor med at DiscoveRx Corporation according the methods published previously5. Briefly, Kinase-tagged T7 phage strains were grown in parallel in an E. coli host derived from the BL21 strain. E. coli were grown to log-phase and infected with T7 phage from a frozen stock and incubated with shaking at 32°C until lysis (90-150 minutes). The kinases were produced in HEK-293 cells and subsequently tagged with DNA for qPCR detection. Streptavidin-coated magnetic beads were treated with biotinylated small molecule ligands to generate affinity resins for kinase\n(§5) inhibitor or DMSO control was performed in polypropylene 384-well plates for 1 hr at room temperature. After wash with PBS buffer containing 0.05% Tween 20, the beads were incubated in elution buffer (PBS containing 0.05 % Tween 20 and 0.5 μM non-biotinylated affinity ligand) for 30 minutes at room temperature. The kinase concentration in the eluates was measured by qPCR."}, "[2]": {"test_system": "RIPK1", "experiment": "KINOMEscan", "details": "50000 nM", "quoted_text": "KINOMEscan™ selectivity screen\nas §4, §5"}, "[3]": {"test_system": "TNNI3K", "experiment": "KINOMEscan", "details": "50000 nM", "quoted_text": "KINOMEscan™ selectivity screen\nas §4, §5"}, "[4]": {"test_system": "TRPM6", "experiment": "KINOMEscan", "details": "50000 nM", "quoted_text": "KINOMEscan™ selectivity screen\n(§6) Briefly, Kinase-tagged T7 phage strains were grown in parallel in an E. coli host derived from the BL21 strain. E. coli were grown to log-phase and infected with T7 phage from a frozen stock and incubated with shaking at 32°C until lysis (90-150 minutes). The kinases were produced in HEK-293 cells and subsequently tagged with DNA for qPCR detection. Streptavidin-coated magnetic beads were treated with biotinylated small molecule ligands to generate affinity resins for kinase\nas §5"}, "[5]": {"test_system": "YES", "experiment": "KINOMEscan", "details": "50000 nM", "quoted_text": "KINOMEscan™ selectivity screen\nas §4, §5"}, "[6]": {"test_system": "FLT3(ITD,F691L)", "experiment": "KINOMEscan", "details": "50000 nM", "quoted_text": "KINOMEscan™ selectivity screen\nas §4, §5"}, "[7]": {"test_system": "TRKB", "experiment": "KINOMEscan", "details": "50000 nM", "quoted_text": "KINOMEscan™ selectivity screen\nThe assay was perfor med at DiscoveRx Corporation according the methods published previously5. […] The kinases were produced in HEK-293 cells and subsequently tagged with DNA for qPCR detection. Streptavidin-coated magnetic beads were treated with biotinylated small molecule ligands to generate affinity resins for kinase\nas §5"}, "[8]": {"test_system": "ACVRL1", "experiment": "KINOMEscan", "details": "50000 nM", "quoted_text": "KINOMEscan™ selectivity screen\nas §4, §5"}, "[9]": {"test_system": "EPHB4", "experiment": "KINOMEscan", "details": "50000 nM", "quoted_text": "KINOMEscan™ selectivity screen\nas §6, §5"}, "[10]": {"test_system": "T1, SGK1", "T1 construct": "purchased Promega V2911", "experiment": "ADP-Glo kinase assay", "assay_type": "biochemical", "details": "50 µM", "description": "(§1) Elisa Assay for phosphorylation of Akt\n(§2) Neuro 2A cells in 48-well plates were incubated with the inhibitor for 30 minutes at 37°C followed by IGF stimulation for 30 min. Cells were lysed and subjected to Elisa assay using an Akt (S473) InstantOne Elisa kit (ThermoFisher Scientific, # 8586042-11) in accordance with manufacturer ’s instruction.\n(§3) An ADP-GloTM kinase assay kit (Promega, # V9101) was used to measure the activity of PDK1 or SGK1 in accordance with the manufacturer’s instructions. For PDK1 assay, the reaction mixture included 5 µM ATP, 50 µM inhibitor, 100 ng recombinant PDK1 and 2 µg PDKtide substrate (Promega, #V2761) prior to the addition of the ADP-Glo reagents. For SGK1, 5 µM ATP, 50 µM inhibitor, 10 ng SGK1 and 1 µg Akt substrate peptide (Promega, #V2911) were used. Staurosporine at concentration between 0.4 and 4,000 nM or the SGK1 inhibitor GSK-650394 (Tocris Bioscience) between 7 and 2,000 nM were used as controls for PDK1 or SGK1 assay respectively. For PI3K assay, 50 µM ATP, 50 µM inhibitor, 100 ng recombinant PI3 kinase (SignalChem, Richmond, Canada, # P27-10H-05) and 1.5 mg/mL multilamellar phospholipid vesicles containing PC/PE/PS/PIP2 (at mass ratio of 1/0.5/0.2/0.1) were used. Inhibitor blanks as well as LY-294002 between 78 and […]"}, "[11]": {"test_system": "T2, PDK1", "T2 construct": "purchased Promega V2761", "experiment": "ADP-Glo kinase assay", "assay_type": "biochemical", "details": "50 µM", "description": "as §1, §2, §3"}, "[12]": {"test_system": "AKT1", "experiment": "KINOMEscan", "details": "50000 nM", "quoted_text": "KINOMEscan™ selectivity screen\nas §4, §5"}, "[13]": {"test_system": "CDC2L1", "experiment": "KINOMEscan", "details": "50000 nM", "quoted_text": "KINOMEscan™ selectivity screen\nas §6, §5"}, "[14]": {"test_system": "PDGFRB", "experiment": "KINOMEscan", "details": "50000 nM", "quoted_text": "KINOMEscan™ selectivity screen\nas §6, §5"}, "[15]": {"test_system": "DCAMKL1", "experiment": "KINOMEscan", "details": "50000 nM", "quoted_text": "KINOMEscan™ selectivity screen\nas §4, §5"}}, "data": [{"smiles": "Oc1cc(-c2ccccc2)c2ccccc2n1", "note": "[G7, 4-phenylquinolin-2(1H)-one]", "values": [{"measurement": "Percent Control", "setting": "[1]", "result": 46, "unit": "%"}, {"measurement": "Percent Control", "setting": "[2]", "result": 100, "unit": "%"}, {"measurement": "Percent Control", "setting": "[3]", "result": 95, "unit": "%"}, {"measurement": "Percent Control", "setting": "[4]", "result": 78, "unit": "%"}, {"measurement": "Percent Control", "setting": "[5]", "result": 93, "unit": "%"}, {"measurement": "Percent Control", "setting": "[6]", "result": 40, "unit": "%"}, {"measurement": "Percent Control", "setting": "[7]", "result": 56, "unit": "%"}, {"measurement": "Percent Control", "setting": "[8]", "result": 100, "unit": "%"}, {"measurement": "Percent Control", "setting": "[9]", "result": 92, "unit": "%"}, {"measurement": "effect on SGK1 activity", "setting": "[10]", "result": "no effects"}, {"measurement": "effect on PDK1 activity", "setting": "[11]", "result": "no effects"}, {"measurement": "Percent Control", "setting": "[12]", "result": 100, "unit": "%"}, {"measurement": "Percent Control", "setting": "[13]", "result": 100, "unit": "%"}, {"measurement": "Percent Control", "setting": "[14]", "result": 23, "unit": "%"}, {"measurement": "Percent Control", "setting": "[15]", "result": 87, "unit": "%"}]}]}
